Each structure is given as a SMILES string.

The record followed here is patent US20240041036A1, “BIO PESTICIDAL COMPOSITION CONTAINS NOVEL NONANOATE ESTERS OF SUGARS AND SUGAR ALCOHOLS TO CONTROL LEPIDOPTERA, HEMIPTERA AND THYSANOPTERA INSECTS” (FERTIS INDIA PVT. LTD., priority 2020, published 2024).

Common to all, as to test: Field experiment on cotton sucking insects, population count
What all share (format): in vivo

The subject of assay [1] is jassids (Amrascabi guttula). Particulars: for Jassids population count after spray: 0.5 g/L. As for the experimental part:
(§1) A field experiment was conducted with EN2 formulation on cotton sucking insects viz. thrips (Scirtothrips dorsails), aphids (Aphis gossypii), jassids (Amrascabi guttula) and whitefly (Bemisia tabaci), as shown in FIG. 25. Two benchmark insecticides were used as control viz. Thiamethoxam (a broad spectrum insecticide) and Acetamiprid (effective to cotton sucking pest). […] Initially the population of the pests (pre count) was assessed before spraying. […] The number of major sucking pests (2 leaves from top, one from middle and 2 leaves from bottom) in 5 tagged plants/treatment was recorded at 24 h before the spray and after 24 h, 3rd, 6th and 9th day after spray. The data was pooled and average population calculated.

The test system of assay [2] is thrips (Scirtothrips dorsails). The following applies: for Thrips population count after spray: 0.5 g/L; for Reduction of thrips population: after 24 h, dose not stated. On the procedure:
as §1, with “pest). Three doses of EN 2 formulation (for 1 kg formulation EN 800 g+Arginine 80 g+Silwet20 g+Tergitol 20 g+Water 150 g) was used for this study viz.” for “pest).”

Assay [3] deals with whitefly (Bemisia tabaci). The following applies: 0.5 g/L. On the procedure:
as §1, with “pest). Three doses of EN 2 formulation (for 1 kg formulation EN 800 g+Arginine 80 g+Silwet20 g+Tergitol 20 g+Water 150 g) was used for this study viz.” for “pest).”

Regarding `C/C(=N\C#N)N(C)Cc1ccc(Cl)nc1` [Acetamiprid], the “Jassids population count after spray” value in assay [1] (3rd day after spray) was determined as 3.56; in assay [1] (6th day after spray) it was 2.66; in assay [1] (9th day after spray), 3.36; in assay [1] (24 hrs after spray), 14. Moreover, the “Thrips population count after spray” value is reported as 4.06 in assay [2] (3rd day after spray), 5.66 in assay [2] (6th day after spray), 3.6 in assay [2] (9th day after spray) and 22.7 in assay [2] (24 h after spray). Besides, in assay [2], the “Reduction of thrips population” value is 13.7%. The “Whitefly population count after spray” value in assay [3] (3rd day after spray) is 1.66; in assay [3] (6th day after spray), 2.4; in assay [3] (9th day after spray), 2.13; in assay [3] (24 h after spray), 8.66.

Regarding `CN1COCN(Cc2cnc(Cl)s2)/C1=N\[N+](=O)[O-]` [Thiamethoxam], the “Jassids population count after spray” value in assay [1] (3rd day after spray) is given as 3.26; in assay [1] (6th day after spray), 2; in assay [1] (9th day after spray), 2.73; in assay [1] (24 hrs after spray), 13.66. Also, the “Reduction of Jassids population” value in assay [1] (3rd day after the spray) is reported as 11.8%. Moreover, the “Reduction of Jassid population” value in assay [1] (9th day) worked out at 40.6%. The “Thrips population count after spray” value in assay [2] (3rd day after spray) was determined as 3.46; in assay [2] (6th day after spray), 5.33; in assay [2] (9th day after spray), 3.76; in assay [2] (24 h after spray), 23.7. In addition, the “Reduction of thrips population” value in assay [2] is 15.9%. For the same molecule, the “Whitefly population count after spray” value in assay [3] (3rd day after spray) was 1.86; in assay [3] (6th day after spray) it was 2.46; in assay [3] (9th day after spray), 1.7; in assay [3] (24 h after spray), 7.
